# Laboratory results taken from US20050038098A1, “Substituted dihydronaphthalene and isochroman compounds for the treatment of metabolic disorders, cancer and other diseases” (priority 2003, published 2005).
# Legend:
# [1] = test system: carcinogen induced mammary tumors; experiment: Carcinogen induced mammary tumors in Sprague Dawley rats; assay type: in vivo, rat; settings: combination treatment with tamoxifen (800 μg/kg) compared to tamoxifen alone
# Procedure: Procedure: Five week-old female Sprague Dawley rats (Harlan) were housed in a fixed 12-12-hr artificial light-dark cycle, and maintained on a standard rodent diet provided ad libitum. Animals were allowed two days to acclimate in this experimental environment prior to the initiation of the study.
# To induce mammary tumors, the female […] were injected intraperitoneally with the carcinogen n-nitroso-n-methylurea, in a single dose of 50 mg/kg in acidified normal saline (pH4 w/acetic acid) at a final volume of 10 mg/ml (5 ml/kg). After eight weeks, mammary tumors are detected, and the tumor bearing females are sorted into treatment groups. Once sorted, the animals were housed four per cage and provided rodent diet ad libitum. All animals are treated with test compound or a vehicle for four weeks, during which time, changes in tumor size are monitored. Tumors were classified as regressing, static or progressing.
# Treatment groups (n=8/group): • 1) Control (sesame oil) • 2) Tamoxifen (800 μg/kg) • 3) Compound 1 (10 mg/kg) • 4) Compound 1 (20 mg/kg) • 5) Compound 1 (50 mg/kg) • 6) Compound 1 (100 mg/kg) • 7) Compound 1 (20 mg/kg)+Tamox. (800 μg/kg) • 8) Compound 9 (75 mg/kg) • 9) Compound 11 (20 mg/kg) • 10) Compound 11 (20 mg/kg)+Tamox. (800 μg/kg) • 11) Compound 11 (50 mg/kg) […]
# [2] = test system: THP-1 cells differentiated into macrophages (macrophage foam cells); experiment: Cholesterol efflux assay from macrophage foam cells; assay type: cell-based; settings: 1 μM final concentration, 10 μg/ml ApoA-I, 24 hr, vs non treated cells
# Procedure: Cholesterol efflux from macrophage foam cells was assayed as described by Sparrow. et al, J. Biol. Chem., 2002, 277, 10021-10027, which is incorporated herein in its entirety by this reference. THP-1 cells obtained from ATCC (Manassas, VI), were cultured in RPMI medium (Sigma, St-Louis, Mo.), containing 10% fetal calf serum (Sigma, St-Louis, Mo.), […] 2-mercaptoethanol, 1 mM sodium pyruvate, 2 mM L-glutamine, 100 units/ml penicillin, […] streptomycin and 0.25 μg/ml amphotericin B obtained from Sigma (St-Louis, Mo.). The THP-1 cells were differentiated into macrophages in 24 well tissue culture dishes at a density of 0.5 million cells/well by incubation in the same medium plus 100 nM tetradecanoyl phorbol acetate (Sigma, St-Louis, Mo.), for 3 days.
# After differentiation into macrophages, the cells were tested for cholesterol efflux as induced by Compound 11 of the invention. Cells were labeled by incubation for 24 hr in fresh growth medium containing [3H]-cholesterol (10 μCi/ml) (PerkinElmer, Boston, Mass.), and 50 μg/ml acetylated-LDL (Frederick, Md.) and 1% Fetal bovine serum (Sigma, St-Louis, Mo.). […] Media were briefly centrifuged to remove non-adherent cells, and then aliquots of both the supernatant and the dissolved cells were counted by liquid scintillation spectrometry to determine radioactivity.
# 3T3-L1 pre-adipocytes = settings: comparative compound, stated as already shown; cited from earlier work
smiles,measurement,setting,value
"Cc1cc2c(cc1-c1cc(/C=C3\SC(=O)NC3=O)ccc1OC(F)(F)F)C(C(C)C)=CCC2(C)C [Compound 1, 5[3-(8-Isopropyl-3,5,5-trimethyl-5,6-dihydro-naphthalen-2-yl)-4-trifluoromethoxy-benzylidene]-thiazolidine-2,4-dione]",effect on mammary tumors in combination with tamoxifen,[1],unexpectedly improved and/or synergistic effects
"COc1c(F)cc(/C=C2\SC(=O)NC2=O)c(F)c1-c1cc2c(cc1C)C(C)(C)OCC2(C)C [Compound 11, 5-[2,5-Difluoro-4-methoxy-3-(1,1,4,4,7-pentamethyl-isochroman-6-yl)-benzylidene]-thiazolidine-2,4-dione]",cholesterol efflux,[2],effective for inducing cholesterol efflux
same,cholesterol efflux,[2]; listed as compound 11,increases cholesterol efflux
"Cc1cc2c(cc1-c1cc(/C=C3\SC(=O)NC3=O)ccc1OC(F)(F)F)C(C)(C)CCC2(C)C [Compound 41, 5-[3-(3,5,5,8,8-Pentamethyl-5,6,7,8-tetrahydro-naphthalen-2-yl)-4-trifluoromethoxy-benzylidene]-thiazolidine-2,4-dione]",inducer of adipocyte differentiation,3T3-L1 pre-adipocytes,potent inducer of adipocyte differentiation
